This passage reports IC50 and EC50 results from ChEMBL document CHEMBL1130995, “Anti-AIDS agents. 32. Synthesis and anti-HIV activity of betulin derivatives” (Bioorg Med Chem Lett, 1998).

Assay [1] has as its system H9. Kind of assay: Compound was evaluated for cytotoxicity in H9 lymphocytes. In kind it is functional, cell-based. The following applies: Homo sapiens.
In assay [2] the test system is H9. Description: Compound was evaluated for anti-HIV activity in H9 lymphocytes. In kind it is functional, cell-based. The following applies: Homo sapiens.

SMILES strings stand for the structures.

Turning to `C=C(C)[C@@H]1CC[C@]2(COC(=O)CC(C)(C)CC(=O)O)CC[C@]3(C)[C@H](CC[C@@H]4[C@@]5(C)CCC(=O)C(C)(C)[C@@H]5CC[C@]43C)[C@@H]12`, in the assay on H9 [1], it took 29.2 µM to reach half-maximal inhibition (IC50). It took 10 µM to reach a half-maximal effect with H9 [2] (EC50). With `CC(C)[C@@H]1CC[C@]2(COC(=O)CC(C)(C)CC(=O)O)CC[C@]3(C)[C@H](CC[C@@H]4[C@@]5(C)CC[C@H](OC(=O)CC(C)(C)CC(=O)O)C(C)(C)[C@@H]5CC[C@]43C)[C@@H]12`, the IC50 in the assay on H9 [1] was determined as 10.6 µM. In the assay on H9 [2], this compound came in with a concentration for a half-maximal effect (EC50) of 0.0047 µM.

On to `C=C(C)[C@@H]1CC[C@]2(COC(=O)CC3(CC(=O)O)CCCC3)CC[C@]3(C)[C@H](CC[C@@H]4[C@@]5(C)CC[C@H](OC(=O)CC6(CC(=O)O)CCCC6)C(C)(C)[C@@H]5CC[C@]43C)[C@@H]12`, for which inhibition in the assay with H9 [1] was half-maximal at 20.5 µM (IC50). This compound also returned a half-maximal effective concentration (EC50) in the assay on H9 [2] of 0.077 µM. Regarding `CCC(C)(CC(=O)O)CC(=O)OC[C@]12CC[C@@H](C(C)C)[C@@H]1[C@H]1CC[C@@H]3[C@@]4(C)CC[C@H](OC(=O)CC(C)(CC)CC(=O)O)C(C)(C)[C@@H]4CC[C@@]3(C)[C@]1(C)CC2` (some centres undefined), the IC50 in the assay on H9 [1] turned out to be 18.7 µM. For the same compound, in the assay with H9 [2], the EC50 was 0.075 µM. For `C=C(C)[C@@H]1CC[C@]2(COC(=O)CC(C)(C)CC(=O)O)CC[C@]3(C)[C@H](CC[C@@H]4[C@@]5(C)CC=CC(C)(C)[C@@H]5CC[C@]43C)[C@@H]12`, in that order: 28.3 µM and 5.4 µM.

Compound `C=C(C)[C@@H]1CC[C@]2(COC(=O)CC(C)(C)CC(=O)O)CC[C@]3(C)[C@H](CC[C@@H]4[C@@]5(C)CC[C@H](O)C(C)(C)[C@@H]5CC[C@]43C)[C@@H]12` displayed an IC50 with H9 [1] of 28.2 µM. Further, the EC50 with H9 [2] turned out to be 3.6 µM. Compound `C=C(C)[C@@H]1CC[C@]2(C(=O)O)CC[C@]3(C)[C@H](CC[C@@H]4[C@@]5(C)CC[C@H](OC(=O)CC(C)(C)CC(=O)O)C(C)(C)[C@@H]5CC[C@]43C)[C@@H]12` returned an EC50 with H9 [2] of 0.0023 µM. This counts as single-digit nanomolar. As for `C=C(C)[C@@H]1CC[C@]2(COC(=O)CC(C)(CC)CC(=O)O)CC[C@]3(C)[C@H](CC[C@@H]4[C@@]5(C)CC[C@H](OC(=O)CC(C)(CC)CC(=O)O)C(C)(C)[C@@H]5CC[C@]43C)[C@@H]12` (some centres undefined), in the assay with H9 [1], the concentration for half-maximal inhibition (IC50) was found to be 18.4 µM. This compound also registered an EC50 in the assay with H9 [2] of 0.0053 µM.

Compound `C=C(C)[C@@H]1CC[C@]2(CO)CC[C@]3(C)[C@H](CC[C@@H]4[C@@]5(C)CC=CC(C)(C)[C@@H]5CC[C@]43C)[C@@H]12` gave an IC50 in the assay with H9 [1] of 31.9 µM. In the assay on H9 [2], this compound gave an EC50 of 11.9 µM.

Regarding `C=C(C)[C@@H]1CC[C@]2(COC(=O)CC(C)(C)CC(=O)O)CC[C@]3(C)[C@H](CC[C@@H]4[C@@]5(C)CC[C@H](OC(=O)CC(C)(C)CC(=O)O)C(C)(C)[C@@H]5CC[C@]43C)[C@@H]12`, in the assay with H9 [1], it took 14.2 µM to reach half-maximal inhibition (IC50). The same compound displayed a concentration giving a half-maximal response (EC50) with H9 [2] of 0.00066 µM. In turn, `CC(C)[C@@H]1CC[C@]2(COC(=O)CC3(CC(=O)O)CCCC3)CC[C@]3(C)[C@H](CC[C@@H]4[C@@]5(C)CC[C@H](OC(=O)CC6(CC(=O)O)CCCC6)C(C)(C)[C@@H]5CC[C@]43C)[C@@H]12` registered an IC50 with H9 [1] of 21.6 µM. In the assay with H9 [2], the midpoint of the response, the EC50, lay at 0.58 µM. On the same counts, the results for `C=C(C)[C@@H]1CC[C@]2(CO)CC[C@]3(C)[C@H](CC[C@@H]4[C@@]5(C)CC[C@H](O)C(C)(C)[C@@H]5CC[C@]43C)[C@@H]12` [BETULIN] are 43.7 µM and 23 µM. Take `Cc1cn([C@H]2C[C@H](N=[N+]=[N-])[C@@H](CO)O2)c(=O)[nH]c1=O` [ZIDOVUDINE]: the midpoint of the response with H9 [2], the EC50, lay at 0.015 µM.
